Patent US10307498B2, “Cleaning and disinfecting composition” (American Sterilizer Company, priority 2015, dated 2019)

Assay: Stability of peracetic acid over a single disinfection cycle at different disinfection solution temperatures, FIGS. 4A-4D
Type: physicochemical
Details: PAA alone or combined with builders/part (B)
Source text: FIGS. 4A-4D are graphs that show the stability of peracetic acid over the time required for a single disinfection cycle, at different disinfection solution temperatures, and as a function of the presence or absence of two different builders formulations as well as the supplemental medium (B) of the present invention.
In the following Examples 6-8, parts (A) and (B) are as described above for Examples 1-5. Builders 1 contains two sodium phosphates, benzotriazole, tetrasodium ethylene diamine tetraacetate, a sodium molybdate, sodium hydroxide, an ethoxylated polyoxypropylene, a polyacrylate, a sodium phosphate, and water. Builders 2 contains a sodium phosphate, a sodium benzotriazole and a sodium salt of ethylene diamine tetraacetic acid.
FIGS. 4A-4D show the stability of peracetic acid over the time required for a single disinfection cycle (stability), at different disinfection solution temperatures when used alone (FIG. 4A), or in combination with prior art Builders 1 (FIG. 4B) or Builders 2 (FIG. 4C) or the supplemental medium part (B) of the present invention (FIG. 4D). The trend of each line can be used to understand the kinetics of stability (or conversely, the rate and amount of degradation of PAA). […]

Question: Which “stability of PAA solution” value does the source give for `CC(=O)OO` [PAA, peracetic acid] here?
Answer: Its value is “relatively stable”.
